Laboratory results as given in patent US7122321B2, “High throughput method for functionally classifying proteins identified using a genomics approach” (Johnson & Johnson Pharmaceutical Research & Development, …, priority 1997, dated 2006).

Columns and labels:
Bovine muscle myosin = assay: microplate thermal shift assay of ATP binding, myosin
Experimental: (§1) Bovine muscle myosin (Sigma), bovine heart 3′–5′ cAMP-dependent protein kinase (Sigma), and chicken muscle pyruvate kinase (Sigma) were each dissolved in Buffer A to generate stock solutions at a final concentration of 2 mg/mL. […] 10 μL of mineral oil was then added to each of the four wells to prevent evaporation. Each data point shown was collected by heating the plate at the temperatures shown for three minutes. For example, the plate was heated to a given temperature, and then allowed to cool to 25 ° C. for one minute, followed by UV illumination and collection of the data. Then the plate was heated to the next higher temperature, and so forth. UV illumination was performed using a long wavelength illumination at […]–420 nm, having a peak at 365 nm. Fluorescence was imaged using a CCD camera having a bandpass filter centered at 550 nm.

[1] = biological target: T1, chicken muscle pyruvate kinase (Gallus gallus, UniProt P00548); assay: microplate thermal shift assay of ATP binding, pyruvate kinase; settings: 10 mM, standard deviation in parentheses
T1 construct: chicken muscle pyruvate kinase (Sigma); purchased Sigma; host or cells: chicken muscle
T1 sequence (P00548 whole entry): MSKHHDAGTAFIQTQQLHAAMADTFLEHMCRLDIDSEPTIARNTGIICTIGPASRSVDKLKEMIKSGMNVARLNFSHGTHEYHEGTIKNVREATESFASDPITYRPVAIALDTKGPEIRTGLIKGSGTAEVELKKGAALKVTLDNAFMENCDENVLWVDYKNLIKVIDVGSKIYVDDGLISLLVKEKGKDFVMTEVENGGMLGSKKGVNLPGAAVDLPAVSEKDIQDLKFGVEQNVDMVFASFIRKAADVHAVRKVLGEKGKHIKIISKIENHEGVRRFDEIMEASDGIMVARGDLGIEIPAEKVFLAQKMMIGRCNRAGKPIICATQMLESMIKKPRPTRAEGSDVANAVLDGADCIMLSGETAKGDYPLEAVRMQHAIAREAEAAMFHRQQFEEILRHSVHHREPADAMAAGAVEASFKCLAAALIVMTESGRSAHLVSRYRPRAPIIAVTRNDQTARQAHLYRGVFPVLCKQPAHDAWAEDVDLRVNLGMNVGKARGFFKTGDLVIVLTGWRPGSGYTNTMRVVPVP
Experimental: as §1

[2] = biological target: T2, bovine heart 3′–5′ cAMP-dependent protein kinase (Bos taurus, UniProt P00517); assay: microplate thermal shift assay of ATP binding, cAMP-dependent protein kinase
T2 construct: bovine heart 3′–5′ cAMP-dependent protein kinase (Sigma); purchased Sigma; host or cells: bovine heart

D(II) FGFR1 = biological target: T3, D(II) FGFR1 (Homo sapiens, UniProt P11362); assay: functional probe library screen (microplate thermal shift assay) against D(II) FGFR1; format: binding; settings: functional probe library Plate 1; for effect on thermal stability of D(II) FGFR1: 50 μM D(II) FGFR1
T3 construct: domain II of the fibroblast growth factor receptor 1 (D(II)FGFR1); hexa-histidine (N); made in house; host or cells: E. coli (renatured from inclusion bodies)
T3 sequence (P11362 158-246 limits assumed): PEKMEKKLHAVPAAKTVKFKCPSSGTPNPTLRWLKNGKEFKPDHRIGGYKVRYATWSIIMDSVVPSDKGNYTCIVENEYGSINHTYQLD
From the text: The compounds in functional probe library Plate 1 was also employed to generate an activity spectrum for D(II) FGFR1. D(II) FGFR1 was cloned and expressed in E. coli. Recombinant D(II) FGFR1 was renatured from inclusion bodies essentially as described (Wetmore, D. R. et al., Proc. Soc. Mtg., San Diego, Calif. (1994)), except that a hexa-histidine tag was included at the N-terminus to facilitate recovery by affinity chromatography on a Ni^2+ chelate column (Janknecht, R. et al., Natl. Acad Sci. USA 88:8972–8976 (1991)). D(II) FGFR1 was further purified on a heparin-sepharose column (Kan, M. et al., Science 259:1918–1921 (1993); Pantoliano, M. W. et al., Biochemistry 33:10229–10248 (1994)). Purity was >95%, as judged by SDS-PAGE. The D(II) FGFR1 protein was concentrated to 12 mg/mL (˜1 mM) and stored at 4° C.
Reactions were prepared in 96-well polycarbonate microtitre plate v-bottom wells. The final concentration of D(II) FGFR1 was 50 μM in […], pH 8 in each well of a 96-well polycarbonate microtitre plate.
The fluorescence emission was measured at 460 nm.

[3] = test system: pigeon liver arylamine acetyltransferase; assay: microplate thermal shift assay, arylamine acetyltransferase; format: binding; settings: Arylamine Acetyl transferase
[4] = biological target: T4, porcine liver formimino glutamic acid transferase (Sus scrofa, UniProt P53603); assay: microplate thermal shift assay, formimino glutamic acid transferase; format: binding; settings: Formimino L-Glutamic acid Transferase
T4 construct: porcine liver formimino glutamic acid transferase (FGT, Sigma); purchased Sigma; host or cells: porcine liver
T4 sequence (P53603 1-541): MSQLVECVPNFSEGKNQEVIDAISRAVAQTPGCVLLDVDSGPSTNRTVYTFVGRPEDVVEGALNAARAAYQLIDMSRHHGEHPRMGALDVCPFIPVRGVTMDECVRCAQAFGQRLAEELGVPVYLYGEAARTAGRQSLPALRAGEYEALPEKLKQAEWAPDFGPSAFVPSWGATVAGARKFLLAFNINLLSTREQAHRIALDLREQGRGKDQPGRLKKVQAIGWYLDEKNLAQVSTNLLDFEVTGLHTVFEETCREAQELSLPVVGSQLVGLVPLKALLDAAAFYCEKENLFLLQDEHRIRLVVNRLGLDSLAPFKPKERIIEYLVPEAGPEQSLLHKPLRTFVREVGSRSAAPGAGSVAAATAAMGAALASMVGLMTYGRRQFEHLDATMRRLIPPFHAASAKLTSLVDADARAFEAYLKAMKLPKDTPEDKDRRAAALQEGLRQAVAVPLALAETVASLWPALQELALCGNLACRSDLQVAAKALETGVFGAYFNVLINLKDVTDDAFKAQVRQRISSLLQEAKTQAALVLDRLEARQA
Experimental: Folic acid binding can be assayed using the microplate thermal shift assay. Bovine liver dihydrofolate reductase (DHFR, Sigma), chicken liver dihydrofolate reductase (DHFR, Sigma), pigeon liver arylamine acetyltransferase (ArAcT, Sigma), and porcine liver formimino glutamic acid transferase (FGT, Sigma) were each dissolved in Buffer A (50 mM HEPES, pH 7.5, 100 mM NaCl) to generate stock solutions at a final concentration of 2 mg/mL. Solutions of dihydrofolic acid (FAH2), methotrexate, nicotinamide adenine dinucleotide phosphate (NADP), were prepared by dissolving solid material into Buffer A immediately prior to use. Dapoxyl™ 12800 solution was prepared by diluting a stock of 20 mM Dapoxyl™, 12800 in dimethyl sulfoxide to the appropriate concentration in Buffer A.
For the thermal shift assay, four 10 μL aliquots of each assay mixture were dispensed into four wells located in different quadrants of an MJ Research 384-well thermocycler plate. 10 μL of mineral oil was then added to each of the four wells to prevent evaporation. Each data point shown was collected by heating the plate at the temperature shown for three minutes, followed by incubation at 25° C. for one minute, followed by UV illumination and collection of the data.

[5] = biological target: T5, chicken liver dihydrofolate reductase (Gallus gallus, UniProt P00378); assay: microplate thermal shift assay, chicken DHFR; format: binding; settings: for ΔTm of ligand complexed with DHFR: DHFR (chicken), single ligand 10 mM
T5 construct: chicken liver dihydrofolate reductase (DHFR, Sigma); purchased Sigma; host or cells: chicken liver
T5 sequence (P00378 1-189): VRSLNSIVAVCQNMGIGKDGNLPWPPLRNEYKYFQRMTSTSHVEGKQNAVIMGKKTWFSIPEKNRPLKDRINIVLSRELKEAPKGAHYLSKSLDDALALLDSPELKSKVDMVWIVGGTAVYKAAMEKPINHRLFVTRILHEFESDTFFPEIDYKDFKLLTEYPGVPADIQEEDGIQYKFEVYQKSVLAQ

[6] = biological target: T6, Bovine liver dihydrofolate reductase (Bos taurus, UniProt P00376); assay: microplate thermal shift assay, bovine DHFR; format: binding; design: Kd; Kd; Tm of the thermal unfolding curve; control 47.2° C; control 50.8° C; ΔTm; settings: FIG. 12
T6 sequence (P00376 1-187): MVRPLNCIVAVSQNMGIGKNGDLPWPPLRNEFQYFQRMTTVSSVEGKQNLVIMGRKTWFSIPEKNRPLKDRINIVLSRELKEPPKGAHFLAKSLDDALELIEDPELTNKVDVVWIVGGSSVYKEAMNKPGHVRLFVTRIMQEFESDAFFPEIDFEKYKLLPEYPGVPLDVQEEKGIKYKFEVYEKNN

[7] = biological target: T6, Bovine liver dihydrofolate reductase; assay: microplate thermal shift assay, bovine DHFR; format: binding; design: Bovine liver dihydrofolate reductase (DHFR, Sigma); purchased Sigma; host or cells: bovine liver; settings: for ΔTm of ligand complexed with DHFR: DHFR (cow), single ligand 10 mM
human α-thrombin (human) [8] = biological target: human α-thrombin (human) (UniProt P00734); assay: microplate thermal shift assay, 1 µM thrombin + 50 µM hirudin peptide alone
human α-thrombin (human) [9] = biological target: human α-thrombin (human) (UniProt P00734); assay: microplate thermal shift assay, Kd at Tm, hirudin peptide binding thrombin in the presence of 50 µM 3DP-4660
human α-thrombin (human) [10] = biological target: human α-thrombin (human) (UniProt P00734); assay: microplate thermal shift assay, Kd at Tm, hirudin peptide binding thrombin in the presence of 200 µM heparin 5000
human α-thrombin (human) [11] = biological target: human α-thrombin (human) (UniProt P00734); assay: microplate thermal shift assay, Kd at 298 K estimated, hirudin peptide binding thrombin in the presence of 50 µM 3DP-4660
human α-thrombin (human) [12] = biological target: human α-thrombin (human) (UniProt P00734); assay: microplate thermal shift assay, Kd at 298 K estimated, hirudin peptide binding thrombin in the presence of 200 µM heparin 5000
human α-thrombin (human) [13] = biological target: human α-thrombin (human) (UniProt P00734); assay: microplate thermal shift assay, 50 µM hirudin peptide added to thrombin in the presence of 50 µM 3DP-4660 (shift against TH/3dp-4660)
human α-thrombin (human) [14] = biological target: human α-thrombin (human) (UniProt P00734); assay: microplate thermal shift assay, 50 µM hirudin peptide added to thrombin in the presence of 200 µM heparin 5000 (shift against TH/Heparin 5000)
[15] = Myosin, 10 mM, standard deviation in parentheses

Nc1ncnc2c1ncn2[C@@H]1O[C@H](COP(=O)(O)OP(=O)(O)OP(=O)(O)O)[C@@H](O)[C@H]1O [ATP, adenosine triphosphate] was tested, and the “Tm of the thermal unfolding curve” value (Bovine muscle myosin; (+)ATP, FIG. 9, control 49.3° C.) was 51.4 °C, the Kd (Bovine muscle myosin; FIG. 9) was 440000 nM and the ΔTm (Bovine muscle myosin; FIG. 9) was 2.1 °C. For the same compound, the ΔTm (Bovine muscle myosin; [15]) was 2.2 (±0.4) ° C and the ΔTm at 10000 µM [1] was -0.44 °C.
With Nc1ncnc2c1ncn2[C@@H]1O[C@H](COP(=O)(O)OP(=O)(O)OP(O)(O)=S)[C@@H](O)[C@H]1O [ATP-γ-S, adenosinetriphosphate-γ-S] the ΔTm (Bovine muscle myosin; [15]) was 0.0 (±0.2) ° C, the ΔTm ([2]; 3′–5′ cAMP Protein kinase, 10 mM, standard deviation in parentheses) was 5.6 (±1.7) ° C and the “Tm of the thermal unfolding curve” value ([2]; (+) ATP-γ-S, FIG. 10, control 46.2° C.) was 51.8 °C. For the same compound, the Kd ([2]; FIG. 10) was 200000 nM, the ΔTm ([2]; FIG. 10) was 5.6 °C and the ΔTm [1] was 0.8 (±0.11) ° C.
With O=C[C@H](O)[C@@H](O)[C@H](O)[C@H](O)CO [D(+)-glucose] the “effect on thermal stability of D(II) FGFR1” value (shortened to “effect on thermal stability”) (D(II) FGFR1) was “stabilize”.
OC[C@H]1O[C@@](CO)(O[C@H]2O[C@H](CO)[C@@H](O)[C@H](O)[C@H]2O)[C@@H](O)[C@@H]1O [D(+)-sucrose] was tested, and the “effect on thermal stability” value (D(II) FGFR1) was “stabilize”.
With Nc1nc2c(c(=O)[nH]1)N=C(CNc1ccc(C(=O)N[C@@H](CCC(=O)O)C(=O)O)cc1)CN2 [FAH2, dihydrofolic acid] the ΔTm ([3]; 100 μM) was −1.8 (±0.5) and the ΔTm at 100 µM [4] was 3.62 °C.
In the case of CN(Cc1cnc2nc(N)nc(N)c2n1)c1ccc(C(=O)N[C@@H](CCC(=O)O)C(=O)O)cc1 [Methotrexate, methotrexate], the ΔTm ([3]; 100 μM) is reported as 1.0 (±0.4) and the ΔTm at 100 µM [4] is reported as 0.9 °C.
NC(=O)C1=CN([C@@H]2O[C@H](COP(=O)(O)OP(=O)(O)OC[C@H]3O[C@@H](n4cnc5c(N)ncnc54)[C@H](OP(=O)(O)O)[C@@H]3O)[C@@H](O)[C@H]2O)C=CC1 [NADPH, nicotinamide adenine dinucleotide phosphate-reduced form] was tested, and the “ΔTm of ligand complexed with DHFR” value [5] was 11.9 degrees, the “Tm of the thermal unfolding curve” value ([6]; (+) NADPH 10 mM, control 50.8° C.) was 53.8 °C and the Kd [6] was 700 nM. For the same compound, the ΔTm ([6]; NADPH 10 mM) was 3 °C and the “ΔTm of ligand complexed with DHFR” value [7] was 9.7 degrees.
In the case of OC[C@@H](O)[C@@H](O)[C@H](O)[C@@H](O)CO [sorbitol], the “effect on thermal stability” value (D(II) FGFR1) is reported as “stabilize”.
In the case of O=P(O)(O)OP(=O)(O)OP(=O)(O)O [tri-polyphosphate], the “thermal shift of D(II) FGFR1” value (D(II) FGFR1; largest shift) is reported as “about 11 °C”.
OC[C@@H](O)[C@H](O)[C@@H](O)CO [xylitol] was tested, and the “effect on thermal stability” value (D(II) FGFR1) was “stabilize”.
“Hirugen (hirudin 53-64) (Sigma) (from UniProt P09945 60-71) (peptide)” was tested, and the ΔTm (human α-thrombin (human) [8]) was 5.8 ° K, the Kd (human α-thrombin (human) [9]) was 731 nM and the Kd (human α-thrombin (human) [10]) was 4250 nM. It also gave a Kd (human α-thrombin (human) [11]) of 54 nM, a Kd (human α-thrombin (human) [12]) of 478 nM and a ΔTm (human α-thrombin (human) [13]) of 4.6 ° K. For the same compound, the ΔTm (human α-thrombin (human) [14]) was 2.6 ° K.
For “nicotinamide adenine dinucleotide phosphate [NADP]”, the “ΔTm of ligand complexed with DHFR” value [5] was 7.5 degrees, the ΔTm ([5]; DHFR (second row, reference Tm 56.6), 5 mM) was 3.8 (±0.4) and the ΔTm ([3]; 5 mM) was 2.8 (±0.4). The ΔTm ([4]; 5 mM) was 0.0 (±0.2), the “ΔTm of ligand complexed with DHFR” value [7] was 6.3 degrees and the ΔTm ([7]; DHFR (first row, reference Tm 52.47), 5 mM) was 3.2 (±0.13).
